Assay results: patent EP4000617A1, “COMPOSITIONS FOR USE IN THE TREATMENT OF LEUKAEMIA” (Fundació Institut de Recerca Contra la Leucèmia Josep …, priority 2020, dated 2022)

Test system: Luc-positive MonoMac-1 AML cells
Assay: Luc-positive MonoMac-1 AML xenograft in NSG mice, bioluminescence imaging
Format: in vivo, NOD-scid IL2Rgamma null (NSG) mice
Conditions: 10 mg/kg intraperitoneally on days 3, 4, 5, 6, 7, 10 and 11, at day 12, in comparison to the control

Substance: N,N-dimethyl 3-(10H-benz[b]indeno[2,1-d]thien-10-ylidene) -1-Propanamine [compound 87]
- amount of AML cells: remarkable reduction
